Results from patent publication US20250388575A1, “HETEROBIFUNCTIONAL COMPOUNDS AND METHODS OF TREATING DISEASE” (Halda Therapeutics OpCo, Inc., priority 2022, published 2025).
Read-outs that look alike come from different tables or passages of the source.

What was measured:
[1] = system: T-Rex 293 cell line SC3 cells having increased expression of androgen receptor protein; assay: Cellular growth inhibition, T-Rex 293 SC3 cells with increased androgen receptor expression (doxycycline), CellTiter-Glo; assay type: cell-based; conditions: T-Rex 293 SC3 cells with increased androgen receptor expression (exposed to 10 ng/mL doxycycline), 72 hours, CellTiter-Glo; read-out: GI50
Method in brief: (§1)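 SC3, a T-Rex 293 clone with doxycycline-inducible wild-type androgen receptor, was seeded in phenol red-free DMEM with 10% charcoal-dextran FBS, with or without 10 ng/mL doxycycline. Compound added at 24 h (0.5% DMSO) for 72 h at 37° C. CellTiter-Glo 2.0 luminescence; GI50 from four-parameter fit.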

[2] = system: T-Rex 293 cell line SC3 cells lacking increased expression of androgen receptor protein; assay: Cellular growth inhibition, T-Rex 293 SC3 cells lacking increased androgen receptor expression (no doxycycline), CellTiter-Glo; assay type: cell-based; conditions: T-Rex 293 SC3 cells lacking increased androgen receptor expression (not exposed to doxycycline), 72 hours, CellTiter-Glo; read-out: GI50
Method in brief: as §1

VCaP cells = assay: Cellular growth inhibition assay for VCaP cells, CellTiter-Glo; assay type: cell-based, human; conditions: VCaP cells, 72 hours, CellTiter-Glo, read-out: GI50
Method in brief: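 GI50 values come from four-parameter curve fits of luminescence data normalized to a zero baseline. Compound, in medium with 0.5% DMSO, was added one day after plating and left for 72 h before CellTiter-Glo 2.0 addition.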

T47D cells = assay: Cellular growth inhibition assay for T47D cells, CellTiter-Glo; assay type: cell-based, human; conditions: 72 hours treatment, CellTiter-Glo 2.0
Description: T47D cells were purchased from American Type Cell Culture (ATCC Cat #HTB-133) and then seeded on poly-D-lysine coated, black clear-bottom 384-well plates at 3000/well in 25 μL Dulbecco's Modified Eagle Medium (DMEM) supplemented with 10% w/w Fetal bovine serum (FBS), 0.2 units/mL recombinant human insulin (Gibco Cat #12585014), and 1% w/w Pen-Strep. Pen-Strep is a commercially available mixture of penicillin G and streptomycin, which is used in mammalian cell culture media to prevent bacterial contamination. Dulbecco's Modified Eagle Medium (DMEM) supplemented with 10% w/w fetal bovine serum (FBS), 0.2 units/mL recombinant human insulin, and 1% w/w Pen-Strep is herein referred to as Treatment Medium. Following seeding of cells in the plates, the plates were spun at 300×g for 30 seconds, then equilibrated to room temperature for 30 minutes, and then deposited in a humidified tissue culture incubator maintained at 37° C. with 5% CO2.
At 24 hours after seeding of the cells, dilutions of test compound were prepared in DMSO and dissolved in Treatment Medium, to achieve a final DMSO concentration of 0.5% w/w, thereby providing the Test Compound Solution. A 25 μL aliquot of the Test Compound Solution was added to cells in the well plates. An equal volume of a solution containing DMSO and Treatment Medium was used as a negative control. Following treatment of cells with Test Compound Solution or said equal volume of a solution containing DMSO and Treatment Medium, the plates were spun at 300×g for 30 seconds, and then left in an incubator for 72 hours.
At the end of the treatment duration, cell viability was quantified with CellTiter-Glo 2.0 reagent (Promega Cat #G9243). For this purpose, plates were equilibrated to room temperature for 30 minutes, and then 25 μL of CellTiter-Glo 2.0 reagent was added to cells in the plate wells. Plates were then agitated on a shaker for two minutes at 500 rpm and subsequently incubated at room temperature for 10 minutes. Following incubation, the plates were spun at 3000×g for 30 seconds, then sealed with an optical adhesive cover, and luminescence readings were measured with an EnVision Plate Reader (Perkin Elmer).
Data was normalized using zero luminescence for baseline. A four-parameter non-linear regression curve fit was applied to dose-response data in GraphPad Prism data analysis software to determine the half-maximal growth inhibitory concentration (GI50) for each test compound.

GI50 (VCaP cells; Homo sapiens) [nM]	GI50 (T47D cells; Homo sapiens) [nM]	GI50 (VCaP cells) [nM]	GI50 (T47D cells) [nM]	Compound	GI50 [1] [nM]	GI50 [2] [nM]
		< 500	< 500	Cn1cc(-c2cc(C(C)(C)O)ccc2Oc2ccc(CCCC3CN(c4ccc(C(=O)N[C@H]5CC[C@H](Oc6ccc(C#N)c(Cl)c6)CC5)nn4)C3)cc2)c2cc[nH]c2c1=O [I-127]	< 500	500 to 1500
		< 500	< 500	Cn1cc(-c2cc(C(C)(C)O)ccc2Oc2ccc(CCC3CC4(C3)CN(c3ccc(C(=O)N[C@H]5CC[C@H](Oc6ccc(C#N)c(Cl)c6)CC5)nn3)C4)cc2)c2cc[nH]c2c1=O [I-126]	< 500	< 500
< 500	500 to 1500			Cn1cc(-c2cc(C3CCCS3(=O)=O)ccc2Oc2ccc(CCC3CCN(c4ccc(C(=O)NC5CCC(Oc6ccc(C#N)c(Cl)c6)CC5)nn4)CC3)cc2)c2cc[nH]c2c1=O (stereo not drawn) [I-252, N-[4-(3-chloro-4-cyano-phenoxy)cyclohexyl]-6-[4-[2-[4-[4-(1,1-dioxothiolan-2-yl)-2-(6-methyl-7-oxo-1Hpyrrolo[2,3-c]pyridin-4-yl)phenoxy]phenyl]ethyl]-1-piperidyl]pyridazine-3-carboxamide]	< 500	> 3000
		< 500	< 500	CCS(=O)(=O)c1ccc(Oc2ccc(CCCC3CN(c4ccc(C(=O)N[C@H]5CC[C@H](Oc6ccc(C#N)c(Cl)c6)CC5)nn4)C3)cc2)c(-c2cn(C)c(=O)c3[nH]ccc23)c1 [I-68]	< 500	< 500
		< 500	< 500	CCS(=O)(=O)c1ccc(Oc2ccc(CCC3CCN(c4ccc(C(=O)N[C@H]5CC[C@H](Oc6ccc(C#N)c(Cl)c6)CC5)nn4)CC3)c(C(F)(F)F)c2)c(-c2cn(C)c(=O)c3[nH]ccc23)c1 [I-85]	< 500	< 500

The next lines start with the compound.

Compound	GI50 (VCaP cells; Homo sapiens) [nM]	GI50 (T47D cells; Homo sapiens) [nM]	GI50 (VCaP cells) [nM]	GI50 (T47D cells) [nM]	GI50 [1] [nM]	GI50 [2] [nM]
Cn1cc(-c2cc(S(C)(=O)=O)ccc2OC(CCCCN2CCN(c3ccc(C(=O)NC4CCC(Oc5ccc(C#N)c(Cl)c5)CC4)nn3)CC2)C2CC2)c2cc[nH]c2c1=O (stereo not drawn) [I-244, N-[4-(3-chloro-4-cyano-phenoxy)cyclohexyl]-6-[4-[5-cyclopropyl-5-[2-(6-methyl-7-oxo-1H-pyrrolo[2,3-c]pyridin-4-yl)-4-methylsulfonyl-phenoxy]pentyl]piperazin-1-yl]pyridazine-3-carboxamide]	< 500	< 500			< 500	< 500
CN(C1CCN(c2ccc(C(=O)N[C@H]3CC[C@H](Oc4ccc(C#N)c(Cl)c4)CC3)nn2)CC1)C1CN(c2ccc(Oc3ccc(C(C)(C)O)cc3-c3cn(C)c(=O)c4[nH]ccc34)cc2)C1 [I-140]	< 500	< 500			< 500	< 500
CCS(=O)(=O)c1ccc(Oc2ccc(OC3CC4(C3)CN(c3ccc(C(=O)N[C@H]5CC[C@H](Oc6ccc(C#N)c(Cl)c6)CC5)nn3)C4)c(F)c2)c(-c2cn(C)c(=O)c3[nH]ccc23)c1 [I-44]	< 500	< 500			< 500	< 500
CCS(=O)(=O)c1ccc(Oc2ccc(OCC3CCN(c4ccc(C(=O)N[C@H]5CC[C@H](Oc6ccc(C#N)c(Cl)c6)CC5)nn4)CC3)cc2F)c(-c2cn(C)c(=O)c3[nH]ccc23)c1 [I-43]			< 500	< 500	< 500	< 500
CCS(=O)(=O)Cc1ccc(Oc2cccc(OCCOC3CCN(c4ncc(C(=O)N[C@H]5CC[C@H](Oc6ccc(C#N)c(Cl)c6)CC5)cn4)CC3)c2)c(-c2cn(C)c(=O)c3[nH]ccc23)c1 [I-152]	< 500	< 500			< 500	< 500
CCS(=O)(=O)c1ccc(Oc2cc(F)c(CCC3CCN(c4ccc(C(=O)N[C@H]5CC[C@H](Oc6ccc(C#N)c(Cl)c6)CC5)nn4)CC3)c(F)c2)c(-c2cn(C)c(=O)c3[nH]ccc23)c1 [I-49]			< 500	1500 to 3000	< 500	< 500
CCS(=O)(=O)c1ccc(Oc2ccc(CN3CC4(C3)CN(c3ccc(C(=O)N[C@H]5CC[C@H](Oc6ccc(C#N)c(Cl)c6)CC5)nn3)C4)c(F)c2)c(-c2cn(C)c(=O)c3[nH]ccc23)c1 [I-74]	< 500	< 500			< 500	< 500
